Measurements from patent US20120107323A1, “KINASE PROTEIN BINDING INHIBITORS” (University of Florida, priority 2009, published 2012).

How the values were obtained:
FAK and IGF-1R = target: T1, FAK and IGF-1R (Homo sapiens, UniProt Q05397); assay: Coimmunoprecipitation of FAK and IGF-1R in A375 melanoma cells; format: cell-based; conditions: average IC50, A375 cells, immunoprecipitation with antibody against FAK; read-out: IC50, disruption of FAK/IGF-1R binding
T1 construct: endogenous in cells; host or cells: C8161 (A2) and A375 (A3) melanoma cells
T1 sequence (Q05397 2-1052 limits assumed): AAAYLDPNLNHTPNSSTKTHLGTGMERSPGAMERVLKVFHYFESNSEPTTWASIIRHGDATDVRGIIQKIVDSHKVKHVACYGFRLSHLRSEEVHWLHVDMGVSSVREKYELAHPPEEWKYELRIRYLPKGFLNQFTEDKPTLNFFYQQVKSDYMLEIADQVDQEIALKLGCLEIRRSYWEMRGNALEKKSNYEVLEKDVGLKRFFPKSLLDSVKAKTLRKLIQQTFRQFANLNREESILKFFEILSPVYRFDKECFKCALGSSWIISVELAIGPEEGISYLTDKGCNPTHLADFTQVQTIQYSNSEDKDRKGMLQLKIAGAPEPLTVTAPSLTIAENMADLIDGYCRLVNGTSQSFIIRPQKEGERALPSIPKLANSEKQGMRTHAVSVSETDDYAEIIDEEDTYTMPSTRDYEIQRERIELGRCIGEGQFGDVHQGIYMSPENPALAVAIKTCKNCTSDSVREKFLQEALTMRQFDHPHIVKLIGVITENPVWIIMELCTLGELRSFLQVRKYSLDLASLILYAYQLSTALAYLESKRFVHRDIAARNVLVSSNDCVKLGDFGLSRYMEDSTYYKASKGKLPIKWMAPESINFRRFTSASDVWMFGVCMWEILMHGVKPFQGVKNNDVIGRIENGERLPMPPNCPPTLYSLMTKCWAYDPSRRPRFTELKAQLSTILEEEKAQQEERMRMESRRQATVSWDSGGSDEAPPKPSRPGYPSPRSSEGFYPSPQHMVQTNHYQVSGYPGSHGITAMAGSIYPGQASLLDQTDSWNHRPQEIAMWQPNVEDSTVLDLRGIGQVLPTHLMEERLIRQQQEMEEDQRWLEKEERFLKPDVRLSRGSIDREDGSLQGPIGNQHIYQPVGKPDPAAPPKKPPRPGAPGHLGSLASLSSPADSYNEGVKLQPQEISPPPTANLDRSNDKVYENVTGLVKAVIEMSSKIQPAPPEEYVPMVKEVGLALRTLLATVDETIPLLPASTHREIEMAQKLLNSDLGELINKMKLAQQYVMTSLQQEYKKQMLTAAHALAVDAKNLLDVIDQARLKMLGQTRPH
Description: Computational Docking The crystal structures of the N-terminal domain of FAK (PDB code 2AL6) (22) and the kinase domain of IGF-1R(PDB 1P40A) (23) were utilized for in silico molecular modeling of their interaction as previously described. The three-dimensional coordinates of compound NSC344553 (INT2-31), obtained from the database of the National Cancer Institute, Developmental Therapeutics Program (NCI/DTP), were docked onto the predicted interface of the amino-terminus of FAK (amino acids 127-243) with the intracytoplasmic portion of IGF-1R (21). […] 100 orientations were created for NSC344553 in the target site and were scored using the computer program grid-based scoring function. […] The intermolecular energies for all configurations of NSC 344553 in binding to FAK-NT2 were calculated as the sum of electrostatic and van der Waals energies. These energy terms were evaluated as correlation functions, which were computed efficiently with Fast Fourier Transforms. […] Bound proteins were boiled in 6× Laemmli buffer and analyzed by SDS-PAGE and Western blotting. […] The intensity of the bands in the western blots was measured with scion image analysis software program. […]

IGF-1R = IGF-1R (Homo sapiens, UniProt P08069); assay: Kinase profiler screening, IGF-1R; format: biochemical; conditions: 1 μM compound, 10 μM ATP
Chain of IGF-1R (P08069 31-1367): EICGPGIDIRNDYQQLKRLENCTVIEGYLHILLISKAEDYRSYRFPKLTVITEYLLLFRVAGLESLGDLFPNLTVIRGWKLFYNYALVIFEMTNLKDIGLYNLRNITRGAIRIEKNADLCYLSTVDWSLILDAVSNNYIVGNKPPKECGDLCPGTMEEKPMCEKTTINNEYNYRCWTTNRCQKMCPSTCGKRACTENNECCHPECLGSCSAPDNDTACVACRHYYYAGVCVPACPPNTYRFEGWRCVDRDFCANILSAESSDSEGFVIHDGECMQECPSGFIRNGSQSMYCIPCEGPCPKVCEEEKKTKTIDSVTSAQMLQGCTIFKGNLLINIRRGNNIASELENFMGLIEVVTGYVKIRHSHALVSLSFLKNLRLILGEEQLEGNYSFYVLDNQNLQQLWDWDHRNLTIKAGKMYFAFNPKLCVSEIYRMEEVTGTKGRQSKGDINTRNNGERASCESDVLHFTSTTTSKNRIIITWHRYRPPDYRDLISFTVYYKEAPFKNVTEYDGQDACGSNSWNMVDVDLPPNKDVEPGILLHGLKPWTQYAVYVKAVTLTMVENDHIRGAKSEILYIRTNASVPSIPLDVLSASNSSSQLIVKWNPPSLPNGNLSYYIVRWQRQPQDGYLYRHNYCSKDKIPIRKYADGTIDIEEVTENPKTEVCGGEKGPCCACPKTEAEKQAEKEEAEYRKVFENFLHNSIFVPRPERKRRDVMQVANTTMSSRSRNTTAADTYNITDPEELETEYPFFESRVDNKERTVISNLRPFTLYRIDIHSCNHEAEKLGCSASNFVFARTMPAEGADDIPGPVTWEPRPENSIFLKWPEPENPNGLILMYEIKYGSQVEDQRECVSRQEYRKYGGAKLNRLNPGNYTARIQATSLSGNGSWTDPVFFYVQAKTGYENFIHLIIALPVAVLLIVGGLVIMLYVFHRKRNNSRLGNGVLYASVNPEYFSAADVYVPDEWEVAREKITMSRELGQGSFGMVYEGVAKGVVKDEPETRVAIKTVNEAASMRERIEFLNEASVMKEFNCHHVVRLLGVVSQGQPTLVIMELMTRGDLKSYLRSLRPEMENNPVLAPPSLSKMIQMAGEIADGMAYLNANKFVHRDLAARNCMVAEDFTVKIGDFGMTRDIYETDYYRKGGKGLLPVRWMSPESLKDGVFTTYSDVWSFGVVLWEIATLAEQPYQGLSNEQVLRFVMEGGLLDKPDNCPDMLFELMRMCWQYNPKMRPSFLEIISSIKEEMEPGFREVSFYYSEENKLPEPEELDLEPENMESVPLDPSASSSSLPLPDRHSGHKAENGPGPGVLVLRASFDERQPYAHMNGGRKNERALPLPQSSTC
Description: (§1) Kinase Profiler Screening: Kinase specificity screening was performed with Invitrogen's SelectScreen® Kinase Profiling Services http://www.invitrogen.com/site/us/en/home/Products-and-Services/Services/Discoverv-Research/SelectScreen-Profiling-Service/SelectScreen-Kinase-Profiling-Service.html. The screening was performed with 1 μM compound, INT2-31, 10 μM ATP, and kinase substrates against ten recombinant kinases according to Z′-LYTET™ Kinase Assay. For PI3 kinase activity, 100 μM ATP, and kinase substrate were utilized with the Invitrogen Adapta® Universal Kinase Assay protocol. Tumor Growth in Nude Mice in vivo: Six week old athymic, female nude mice were purchased from Harlan Laboratory. The mice were maintained in the animal facility, and all experiments were performed in compliance with NIH animal-use guidelines and under an IACUC approved protocol. Melanoma cells were injected, 5×10^6 cells, subcutaneously. When the tumor size reached 100 mm^3, the INT2-31 was introduced by intraperitoneal injection at a dose of 15 mg/kg daily for 21 days. Tumor diameters were measured with calipers, and tumor volume in mm^3 was calculated using the formula [(width)^2×length]/2. At the end of experiment, tumor weight and volume were determined.

C8161 subcutaneous tumor = assay: C8161 melanoma xenograft in nude mice; format: in vivo
Description: as §1
For the melanoma study, the University of Florida IACUC approved the following protocol (IACUC Study #200801077). Melanoma cells were injected, 5×10^6 cells, subcutaneously. When the tumor size reached 100 mm^3, the INT2-31 was introduced by intraperitoneal injection at a dose of 15 mg/kg daily. Tumor diameters were measured with calipers, and tumor volume in mm^3 was calculated using the formula [(width)^2×length]/2. At the end of experiment, tumor weight and volume were determined.
Immunohistochemistry: Xenograft tumor tissue was fixed in 10% formalin and embedded in paraffin. For Ki-67 staining, samples underwent deparaffinization and antigen retrieval and incubated with the primary antibody, Ki-67 (Dako M7240), at 1:200 concentration overnight at 4° C. The tissues were stained with the chromogen DAB and counterstained with hematoxylin and 1% TBS.
For assessment of apoptotic cells, staining was performed utilizing the Dead End™ Calorimetric TUNEL System (Promega, Madison, Wis.) according to instructions from the manufacturer. Percent apoptotic cells were determined from counting at least 400 cells in a high power field.

`CSc1ncnc2c1ccn2C1O[C@H](COP(=O)(O)O)[C@@H](O)[C@H]1O` (stereo partly drawn) [INT2-31, 4-(Methylthio)-7-(5-O-phosphono-D-ribofuranosyl)-{7H-Pyrrolo[2,3-d]pyrimidine}] was tested, and the IC50 (FAK and IGF-1R) was 3.17 µM, the “kinase activity of IGF-1R” value (IGF-1R) was “did not inhibit” and the “phosphorylation of AKT in tumor” value (C8161 subcutaneous tumor; 15 mg/kg vs PBS control, Western blot) was “decrease in phosphorylation of AKT”. For the same compound, the “subcutaneous tumor growth compared to PBS control” value (C8161 subcutaneous tumor; C8161, 15 mg/kg daily intraperitoneal, 21 days, p<0.05) was “significant decrease”, the “body weights between animals in each group” value (C8161 subcutaneous tumor; C8161 and A375 xenograft mice, 15 mg/kg) was “no significant difference” and the “intensity of Ki67 staining” value (C8161 subcutaneous tumor; C8161 tumors, 15 mg/kg vs PBS) was “significantly decreased”. For the same compound, the “percent of cells reactive to Ki67” value (C8161 subcutaneous tumor; C8161 tumors, 15 mg/kg vs PBS) was “significantly decreased”, the “percent of cells undergoing apoptosis (TUNEL)” value (C8161 subcutaneous tumor; C8161 tumors, 15 mg/kg vs control, p<0.05) was “significantly increased” and the “densitometry, mean ratio of IGF-1R to FAK in tumor” value (C8161 subcutaneous tumor; C8161 tumors, immunoprecipitation of FAK, PBS 0.98+/−0.11, p=0.09) was 0.78+/−0.16.
